# “And” between values parts separate entries of the source, which are not always exact repeats. Equal values may be shown once. Read-outs that look alike come from different tables or passages of the source. Marks after values point to notes of the source that are not given here.
# Assays:
# [1] = tested on: KATO-III gastric carcinoma cell line; assay: MTT cytotoxicity assay, KATO-III; format: cell-based; conditions: Homo sapiens, 72 h
# Protocol: (§1) Cytotoxic activity was evaluated in vitro using the microtitration colorimetric method of MTT reduction. In this study, five human carcinoma cell lines were used, including BT474 (ATCC® HTB20^TM), Chago-K1 (National Cancer Institute, Thailand), HepG2 (ATCC® HB8065^TM), KATO-III (ATCC® HTB103^TM), and SW620 (ATCC® CCL227^TM). Additionally, human diploid lung fibroblast (WI-38, ATCC® CCL75^TM) was used as the normal cell line for comparison with the carcinoma cell lines. The culturing of these cell lines was derived in complete medium, including Roswell Park Memorial Institute medium (RPMI-1640), fetal bovine serum (5%, v/v), 25 mM of 4-(2-hydroxyethyl)-1-piperazineethanesulfonic acid (HEPES), sodium bicarbonate (0.25%, w/v), and kanamycin (100 μg/mL). Doxorubicin was used as a positive control. Each well plate contained 198 μL of culture medium of cell lines and was incubated with 5% CO2 atmosphere for 24 h at 37 °C. Then, the culture cells were treated with 2 μL/well of the sample and incubated for 72 h at 37 °C. MTT solution (2 μL, 5 mg/mL in normal saline) was added into each well, and the plates were incubated for an additional 4 h. The supernatant was aspirated out. After that, a mixture of 25 μL of 0.1 M glycine and 150 μL of DMSO was added. The plates were shaken to dissolve the purple-blue crystal of formazan. Then, the absorbance was determined by a microplate reader at 540 nm. The relative cell survival as a percentage of the control (DMSO), which was set at 100%, was calculated using the following formula:(5) The cell survival (%)=[As/Ac] × 100. where As is the absorbance of the test sample and Ac is the absorbance of […].
# [2] = tested on: WI-38 human diploid lung fibroblast; assay: MTT cytotoxicity assay, WI-38 normal cell line; format: cell-based; conditions: 72 h
# Protocol: as §1
# [3] = tested on: Chago-K1 lung bronchus carcinoma cell line; assay: MTT cytotoxicity assay, Chago-K1; format: cell-based; conditions: Homo sapiens, ChaGo-K-1, 72 h
# Protocol: as §1
# [4] = tested on: SW620 colon carcinoma cell line; assay: MTT cytotoxicity assay, SW620; format: cell-based; conditions: Homo sapiens, SW-620, 72 h
# Protocol: as §1
# [5] = tested on: HepG2 liver carcinoma cell line; assay: MTT cytotoxicity assay, HepG2; format: cell-based; conditions: Homo sapiens, 72 h
# Protocol: as §1
# [6] = tested on: BT474 breast carcinoma cell line; assay: MTT cytotoxicity assay, BT474; format: cell-based; conditions: Homo sapiens, BT-474, 72 h
# Protocol: as §1
# Mushroom tyrosinase [7] = target: T1, Mushroom tyrosinase (Agaricus bisporus, UniProt C7FF04); assay: Kinetic analysis of tyrosinase inhibition, diphenolase activity (Lineweaver-Burk plots); format: biochemical; conditions: L-DOPA 0-200 μM, samples 20-1000 μM
# T1 sequence (G1K3P4 entry or part of it): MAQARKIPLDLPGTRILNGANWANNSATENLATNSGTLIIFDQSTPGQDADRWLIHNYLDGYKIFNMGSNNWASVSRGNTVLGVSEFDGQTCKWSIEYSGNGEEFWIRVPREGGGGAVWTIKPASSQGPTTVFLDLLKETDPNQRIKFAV
# T1 sequence (C7FF04 1-392): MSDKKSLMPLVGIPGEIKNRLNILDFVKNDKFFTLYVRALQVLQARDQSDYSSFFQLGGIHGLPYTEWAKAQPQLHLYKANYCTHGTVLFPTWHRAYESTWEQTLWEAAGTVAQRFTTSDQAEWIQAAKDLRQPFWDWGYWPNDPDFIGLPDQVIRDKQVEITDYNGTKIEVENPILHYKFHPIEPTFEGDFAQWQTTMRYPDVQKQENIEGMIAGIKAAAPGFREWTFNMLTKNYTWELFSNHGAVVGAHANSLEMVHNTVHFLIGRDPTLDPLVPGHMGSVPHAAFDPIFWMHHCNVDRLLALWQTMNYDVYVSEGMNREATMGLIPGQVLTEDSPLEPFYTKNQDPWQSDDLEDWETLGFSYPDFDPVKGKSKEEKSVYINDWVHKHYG
# Protocol: (§2) The kinetic analysis of tyrosinase inhibitory activity was performed with respect to both monophenolase and diphenolase activities. The concentration ranges of the samples were 20–1000 μM. Both L-tyrosine and L-DOPA were concentrated at 0, 25, 50, 100, and 200 μM, respectively. The inhibitory kinetics of the samples were analyzed using Lineweaver–Burk plots.
# Mushroom tyrosinase [8] = target: T1, Mushroom tyrosinase; assay: Kinetic analysis of tyrosinase inhibition, monophenolase activity (Lineweaver-Burk plots); format: biochemical; conditions: L-tyrosine 0-200 μM, samples 20-1000 μM
# Protocol: as §2
# [9] = FRAP assay (ferric reducing antioxidant power); conditions: FRAP value, expressed as ferrous sulphate equivalent, mean ± SD of three replicates
# Protocol: FRAP assay was conducted using a modified version of a method originally reported in an earlier study. The FRAP reagent contained 25 mL of 0.3 M acetate buffer (pH 3.6), 2.5 mL of 20 mM ferric chloride solution, and 2.5 mL of 10 mM 2,4,6-tris(2-pyridyl)-1,3,5-triazine and was brought to a final volume of 50 mL using 40 mM HCl solution. Then, the FRAP reagent was put into a water bath for 30 min at 50 °C. Next, 600 μL of FRAP reagent was added to 25 μL of the sample (100 mg/mL). The absorbance was recorded at 595 nm after 4 min of incubation using a spectrophotometer. Trolox was used as a positive control. The ferric reducing capacity was expressed as a ferrous sulphate equivalent.
# [10] = ABTS radical scavenging assay; conditions: mean ± SD of three replicates
# Protocol: The ABTS radical scavenging capacity was determined using a modified version of a previously described procedure. The stock solution included 100 mL of 7.0 mM ABTS solution in methanol and 100 mL of 2.4 mM aqueous solution of potassium persulfate. Then, the reaction mixture was left in the dark for 14 h at 37 °C. The solution of 1 mL of ABTS solution was diluted with 60 mL of absolute ethanol to determine an absorbance of 0.700 ± 0.001 units at 734 nm using a spectrophotometer. Next, 500 µL of the sample (100 mg/mL) was reacted with 500 µL of ABTS solution and the absorbance was measured at 734 nm after 7 min of incubation using a spectrophotometer. The results were compared with Trolox as a standard, and the percentage of scavenging activity was calculated according to the following equation:(4) ABTS radical scavenging activity (%)=[(Ac−As)/Ac]×100. where Ac is the absorbance of ABTS radicals with ethanol and As is the absorbance of ABTS radicals with the test sample or positive control.
# [11] = DPPH radical scavenging assay; conditions: mean ± SD of three replicates
# Protocol: The DPPH radical scavenging activity was determined by a modified method based on a previously described procedure. Briefly, a solution containing 50 µL of sample (100 mg/mL) was dissolved in DMSO/ethanol (1:4 v/v) and 150 µL of 0.05 M DPPH solution in methanol. Then, the reaction mixture was mixed and was incubated in the dark for 30 min at 37 °C. The absorbance of the reaction mixture was measured at 517 nm. Trolox was used as a positive control. The DPPH scavenging effect was calculated according to the following equation:(3) DPPH radical scavenging activity (%)=[1−(As−Ab)/Ad]× 100. where As is the absorbance of the sample mixed with DPPH solution, Ab is the absorbance of the sample without DPPH solution, and Ad is the absorbance of DPPH solution without the sample.
# [12] = set-up: method as in PMID 30364385; conditions: read-out: IC50 for DPPH; cited from earlier work
# tyrosinase = target: tyrosinase; set-up: method as in PMID 30364385; conditions: L-DOPA as substrate; read-out: IC50, antityrosinase; cited from earlier work
# [13] = set-up: method as in PMID 30364385; conditions: read-out: IC50 for ABTS; cited from earlier work
SMILES,"Type of inhibition, diphenolase activity (Mushroom tyrosinase [7])","Type of inhibition, monophenolase activity (Mushroom tyrosinase [8])",IC50 [10] [µM],IC50 [11] [µM],IC50 [1] [µM],IC50 [2] [µM],IC50 [3] [µM],IC50 [4] [µM],IC50 [5] [µM],IC50 [6] [µM],FRAP [9],melting point [°C],IC50 [12] [µM],IC50 (tyrosinase) [µM],IC50 [13] [µM],FRAP ([9]; listed as 6-hydroxyflavanone (3)) [µM],FRAP ([9]; listed as (+)-dihydrokaempferol (4)) [µM]
"COc1cccc2c1C(=O)c1c(O)c3c(c(O)c1C2=O)C[C@@](O)(C(=O)CO)C[C@@H]3O[C@H]1C[C@H](N)[C@H](O)[C@H](C)O1 [Doxorubicin, reference compound]",–,–,–,–,1.78 ± 0.83,> 184,1.58 ± 0.4,1.82 ± 0.39,2.7 ± 0.83,1.21 ± 0.2,–,–,–,–,–,–,–
"O=C(O)c1ccc(O)c(O)c1 [3,4-Dihydroxybenzoic acid (5), 3,4-dihydroxybenzoic acid]",competitive,competitive,290.1 ± 0.95,4.71 ± 0.1,507.5 ± 4.61,> 649,79.2 ± 4.02,591.4 ± 0.71,364.7 ± 2.27,85.2 ± 3.96,3.00 ± 0.40 ^b μM,–,–,–,–,–,–
"C=C(C)[C@@H]1CC[C@]2(C)CC[C@]3(C)C(CCC4[C@@]5(C)CCC(OC(C)=O)C(C)(C)C5CC[C@]43C)C12 (stereo partly drawn) [Lupeol acetate (8), lupeol acetate]",uncompetitive,mixed,669.62 ± 0.42,87.1 ± 0.31,136.7 ± 0.66,> 213,199.9 ± 0.3,182.7 ± 1.51,> 213,60.2 ± 0.9,1.28 ± 0.30 ^a μM,210 to 212,–,–,–,–,–
O=C1c2c(O)cc(O)cc2O[C@H](c2cc(O)c(O)c(O)c2)[C@H]1O [dihydromyricetin],–,–,–,–,–,–,–,–,–,–,–,–,12.4,3.33,3.41,–,–
"O=C1CC(c2ccccc2)Oc2ccc(O)cc21 (stereo not drawn) [6-Hydroxyflavanone (3), 6-hydroxyflavanone]",competitive,competitive,225.5 ± 0.95,3.21 ± 0.7,88.8 ± 3.7,> 416,57.7 ± 1.08,82.8 ± 1.33,65.8 ± 2.37,86.16 ± 0.45,4.12 ± 0.12 ^c μM,–,–,–,–,4.12 ± 0.12,–
"O=C1c2c(O)cc(O)cc2O[C@H](c2ccc(O)cc2)[C@H]1O [(+)-Dihydrokaempferol (4), (+)-dihydrokaempferol]",competitive,competitive,214.8 ± 0.51,2.21 ± 0.77,39.79 ± 0.38,> 347,12.3 ± 0.73,41.1 ± 1.08,13.7 ± 0.38,11.7 ± 0.42,6.23 ± 0.10 ^d μM,–,–,–,–,–,6.23 ± 0.10

# Continued, in another order:
"Type of inhibition, diphenolase activity (Mushroom tyrosinase [7])","Type of inhibition, monophenolase activity (Mushroom tyrosinase [8])",IC50 [10] [µM],IC50 [11] [µM],SMILES,IC50 [1] [µM],IC50 [2] [µM],IC50 [3] [µM],IC50 [4] [µM],IC50 [5] [µM],IC50 [6] [µM],FRAP [9],melting point [°C],IC50 [12] [µM],IC50 (tyrosinase) [µM],IC50 [13] [µM],FRAP ([9]; listed as 6-hydroxyflavanone (3)) [µM],FRAP ([9]; listed as (+)-dihydrokaempferol (4)) [µM]
uncompetitive,noncompetitive,630.84 ± 0.54,16.3 ± 0.33,"CC1(C)CC[C@]2(C)CC=C3[C@]4(C)CC[C@H]5C(C)(C)[C@@H](O)CC[C@]5(C)[C@H]4CC[C@@]3(C)[C@@H]2C1 [Taraxerol (6), taraxerol]",> 235,> 235,> 235,> 235,> 235,> 235,1.46 ± 0.11 ^a μM,–,–,–,–,–,–
mixed,mixed,334.8 ± 0.99,10.2 ± 0.4,"CC1(C)CC[C@]2(C)CC=C3[C@]4(C)CC[C@H]5C(C)(C)C(=O)CC[C@]5(C)[C@H]4CC[C@@]3(C)[C@@H]2C1 [Taraxerone (7), taraxerone]",26.5 ± 0.57,> 234,26.8 ± 0.97,> 234,20.4 ± 1.43,19.2 ± 0.4,1.12 ± 0.13 ^a μM,–,–,–,–,–,–
–,–,188.4 ± 0.43,1.92 ± 0.22,"Cc1c(C)c2c(c(C)c1O)CCC(C)(C(=O)O)O2 (stereo not drawn) [Trolox, reference compound]",–,–,–,–,–,–,6.10 ± 0.28 μM and 6.10 ± 0.28 ^d μM,–,–,–,–,–,–
noncompetitive,noncompetitive,520.22 ± 0.3,77.31 ± 0.6,"CO[C@H]1CC[C@@]2(C)C(CC[C@@]3(C)C4=CC[C@]5(C)CCC(C)(C)CC5[C@@]4(C)CCC23)C1(C)C (stereo partly drawn) [Taraxerol methyl ether (1), taraxerol methyl ether]",> 227,> 227,> 227,> 227,> 227,185 ± 1.61,1.31 ± 0.16 ^a μM,278 to 280,–,–,–,–,–

# Reference: paper PMC6696208, “Antityrosinase, Antioxidant, and Cytotoxic Activities of Phytochemical Constituents from Manilkara zapota L. Bark” (Molecules, 2019)
